Data: publication PMC9592910, “Tissue distribution and integrated pharmacokinetic properties of major effective constituents of oral Gegen-Qinlian decoction in mice” (Frontiers in Pharmacology, 2022)
Marks after values point to notes of the source that are not given here. Blank lines part the entries; values can stand above or below the compound they belong to.

Tests used:
Format in all cases: in vivo, Kunming mice
[1] = Pharmacokinetics/tissue distribution of GQD constituents in the colons of mice after oral GQD; conditions: for half-life / Cmax / MRT / Tmax: both, Kunming
Experimental: (§1) The liver and the colon homogenates were prepared with 10 times (V: W) the volume of ascorbic acid solution (200 μg/ml). Then the homogenates were pretreated as plasma to obtain the tissue samples for LC-MS/MS analysis. Fifty-four Kunming mice were randomly divided into nine groups according to body weight and gender (3 male and three female in each group). […] Then the C-T curves of the constituents in the plasma and the tissue homogenates were respectively drawn and their pharmacokinetic parameters were respectively calculated. […] It should be noted that the pharmacokinetic parameters of a GQD constituent was calculated based on its average concentration in six mice at each time point. The results were expressed as mean ± SD.

[2] = Pharmacokinetics/tissue distribution of GQD constituents in the livers of mice after oral GQD
Experimental: as §1

[3] = Pharmacokinetics of GQD constituents in the portal vein of mice after oral GQD; conditions: both, Kunming, mouse; for AUC(0-t): read-out: AUC0–24 h
Experimental: (§2) Fifty-four Kunming mice were randomly divided into nine groups according to body weight and gender (3 male and three female in each group). Each group was orally administered with water solution (0.2 ml/10 g body weight) of the GQD extract powder at the dosage of 6.1 g/kg body weight. The dosage of GQD extract powder equals to 18 g/kg herbal pieces of GQD, which is equivalent to its clinical dosage. At each designed time point (0.08, 0.25, 0.5, 1, 2, 4, 8, 12, and 24 h) after oral administration, six mice were anesthetized with ether, and blood was collected from the portal vein (about 0.2 ml, aspirated in a 1 ml heparinized syringe) and then the systemic circulation (about 0.2 ml, collected in heparinized tubes after removal of the eyeball) of the mice to prepare plasma samples, and the livers and the colons were removed to prepare respective homogenate. After pretreatment, the concentrations of 19 major constituents of GQD in each sample were measured by the validated LC-MS/MS method (see “2.3”). Then the C-T curves of the constituents in the plasma and the tissue homogenates were respectively drawn and their pharmacokinetic parameters were respectively calculated.
(§3) It should be noted that the pharmacokinetic parameters of a GQD constituent was calculated based on its average concentration in six mice at each time point. The results were expressed as mean ± SD.

[4] = Pharmacokinetics of GQD constituents in the systemic circulation of mice after oral GQD; conditions: both, Kunming, mouse; for AUC(0-t): read-out: AUC0–24 h
Experimental: as §2, §3

[5] = mouse, colon (homogenate), po, […], colon, mice, oral GQD extract […], read-out: T1/2 (converted)
[6] = mouse, colon (homogenate), colon, mice, oral GQD extract 6.1 g/kg
[7] = mouse, colon (homogenate), colon, mice, oral GQD extract 6.1 g/kg, read-out: Tmax
[8] = colon, mice, oral GQD extract […]
[9] = both, Kunming, mouse, liver (homogenate), po, […], liver, mice, oral GQD extract […], read-out: T1/2 (converted)
[10] = both, Kunming, mouse, liver (homogenate), liver, mice, oral GQD extract 6.1 g/kg
[11] = both, Kunming, mouse, liver (homogenate), liver, mice, oral GQD extract 6.1 g/kg, read-out: Tmax
[12] = liver, mice, oral GQD extract […]
[13] = portal vein plasma, po, […], portal vein plasma, mice, oral GQD extract […], read-out: Tmax
[14] = portal vein plasma, mice, oral GQD extract 6.1 g/kg
[15] = portal vein plasma, mice, oral GQD extract 6.1 g/kg, read-out: T1/2 (converted)
[16] = systemic circulation plasma, po, […], systemic circulation plasma, mice, oral GQD […], read-out: T1/2 (converted)
[17] = systemic circulation plasma, po, […], systemic circulation plasma, mice, oral GQD […], read-out: Tmax
[18] = systemic circulation plasma, mice, oral GQD 6.1 g/kg
[19] = both, Kunming, mouse, in vivo, po, […]
[20] = both, Kunming, mouse, in vivo, po, […], T1/2
[21] = mouse, in vivo, colon, mice, oral GQD extract 6.1 g/kg
[22] = both, Kunming, mouse, in vivo, liver, mice, oral GQD extract 6.1 g/kg
[23] = in vivo, portal vein plasma, mice, oral GQD extract 6.1 g/kg
[24] = in vivo, systemic circulation plasma, mice, oral GQD 6.1 g/kg

Compound: O=c1cc(-c2ccccc2)oc2cc(O)c(O)c(O)c12 [Baicalein, baicalein]
half-life [1, 5]: 2 to 3 h | Cmax [1, 6]: 1920 ng/g | MRT [1, 6]: 5.8 h | Tmax [1, 7]: 4 h | T1/2 [1, 8]: 2.6 h | half-life [2, 9]: 2 to 3 h | Cmax [2, 10]: 9020 ng/g | MRT [2, 10]: 4.3 h | Tmax [2, 11]: 4 h | T1/2 [2, 12]: 2.3 h | Tmax [3, 13]: 2 h | Cmax [3, 14]: 381 ng/mL | MRT [3, 14]: 3.8 h | AUC(0-t) [3, 14]: 1760 ng·h/mL | half-life [3, 15]: 1.3 h | half-life [4, 16]: 6.3 h | Tmax [4, 17]: 4 h | Cmax [4, 18]: 26.7 ng/mL | MRT [4, 18]: 6.8 h | AUC(0-t) [4, 18]: 229 ng·h/mL

Compound: O=C(O)[C@H]1O[C@@H](Oc2cc3oc(-c4ccccc4)cc(=O)c3c(O)c2O)[C@H](O)[C@@H](O)[C@@H]1O [Baicalin, baicalin]
half-life [1, 5]: 15 to 19 h | Cmax [1, 6]: 3460 ng/g | MRT [1, 6]: 9.9 h | Tmax [1, 7]: 1 h | T1/2 [1, 8]: 18.6# h | half-life [2, 9]: 1 to 2 h | Cmax [2, 10]: 5710 ng/g | MRT [2, 10]: 3.7 h | Tmax [2, 11]: 2 h | T1/2 [2, 12]: 1.7 h | Tmax [3, 13]: 4 h | Cmax [3, 14]: 8150 ng/mL | MRT [3, 14]: 4.5 h | AUC(0-t) [3, 14]: 46300 ng·h/mL | half-life [3, 15]: 2 h | half-life [4, 16]: 3.1 h | Tmax [4, 17]: 4 h | Cmax [4, 18]: 1450 ng/mL | MRT [4, 18]: 5.1 h | AUC(0-t) [4, 18]: 8670 ng·h/mL

half-life [1, 5]: 14.3 h | Cmax [1, 6]: 293 ng/g | MRT [1, 6]: 10.1 h | Tmax [1, 7]: 4 h | half-life [2, 9]: 15 to 19 h | Cmax [2, 10]: 186 ng/g | MRT [2, 10]: 11 h | Tmax [2, 11]: 4 h | T1/2 [2, 12]: 18.2# h | Tmax [3, 13]: 0.25 h | Cmax [3, 14]: 10.3 ng/mL | MRT [3, 14]: 4.4 h | AUC(0-t) [3, 14]: 67 ng·h/mL | half-life [3, 15]: 5.1 h
Compound: COc1ccc2cc3[n+](cc2c1O)CCc1cc2c(cc1-3)OCO2 [Berberrubine, berberrubine]

Tmax ([1]; mouse, in vivo, po, […]): 4 h | half-life ([1]; mouse, in vivo, po, […], T1/2): 4.3 h | Kp ([2]; both sexes, Kunming, mouse, in vivo, po, AUC0–24 h liv/AUC0–24 h por): 10.5 | Tmax [2, 19]: 2 h | half-life [2, 20]: 3.7 h | half-life ([3]; in vivo, po, […]): 4.7 h | Tmax ([3]; in vivo, po, […], Tmax): 4 h | half-life ([4]; in vivo, po, […], T1/2): 10.8 h | Tmax ([4]; in vivo, po, […], Tmax): 0.25 h
Compound: c1c2c(cc3c1OCO3)-c1cc3ccc4c(c3c[n+]1CC2)OCO4 [Coptisine, coptisine]

Compound: O=c1c(-c2ccc(O)cc2)coc2cc(O)ccc12 [Daidzein, daidzein]
Tmax ([1]; mouse, in vivo, po, […]): 1 h | T1/2 [2, 19]: 3.6 h | Tmax [2, 19]: 0.25 h | half-life [2, 20]: 3 to 4 h | half-life ([3]; in vivo, po, […]): 2.6 h | Tmax ([3]; in vivo, po, […], Tmax): 0.25 to 0.5 h | half-life ([4]; in vivo, po, […], T1/2): 1.5 h | Tmax ([4]; in vivo, po, […], Tmax): 0.25 to 0.5 h

Compound: O=c1c(-c2ccc(O)cc2)coc2cc(O[C@@H]3O[C@H](CO)[C@@H](O)[C@H](O)[C@H]3O)ccc12 [Daidzin, daidzin]
Cmax [1, 21]: 114 ng/g | MRT [1, 21]: 9.9 h | half-life ([1]; mouse, in vivo, colon, mice, oral GQD extract 6.1 g/kg, read-out: T1/2 (converted)): 11 h | Tmax ([1]; mouse, in vivo, colon, mice, oral GQD extract 6.1 g/kg, read-out: Tmax): 1 h | Cmax [2, 22]: 54.1 ng/g | MRT [2, 22]: 3.6 h | half-life ([2]; both, Kunming, mouse, in vivo, liver, mice, oral GQD extract 6.1 g/kg, read-out: T1/2 (converted)): 3.4 h | Tmax ([2]; both, Kunming, mouse, in vivo, liver, mice, oral GQD extract 6.1 g/kg, read-out: Tmax): 0.5 h | Cmax [3, 23]: 76.9 ng/mL | MRT [3, 23]: 2 h | AUC(0-t) [3, 23]: 151 ng·h/mL | half-life ([3]; in vivo, portal vein plasma, mice, oral GQD extract 6.1 g/kg, read-out: T1/2 (converted)): 1.8 h | Tmax ([3]; in vivo, portal vein plasma, mice, oral GQD extract 6.1 g/kg, read-out: Tmax): 0.25 h | Cmax [4, 24]: 49 ng/mL | MRT [4, 24]: 1.8 h | AUC(0-t) [4, 24]: 85.7 ng·h/mL | half-life ([4]; in vivo, systemic circulation plasma, mice, oral GQD 6.1 g/kg, read-out: T1/2 (converted)): 1.8 h | Tmax ([4]; in vivo, systemic circulation plasma, mice, oral GQD 6.1 g/kg, read-out: Tmax): 0.25 h

T1/2 ([1]; mouse, in vivo, po, […]): 2.4 h | T1/2 ([2]; mouse, in vivo, po, […]): 11.1 h
Compound: COc1ccc2cc3[n+](cc2c1OC)CCc1cc(O)c(O)cc1-3 [Demethyleneberberine, demethyleneberberine]
